Experimental data taken from patent US7192932B1, “Use of immunomodulating agents” (Lauras AS, priority 1997, dated 2007).

Legend:
[1] = test system: peripheral blood CD3+ T cells; assay: TCR/CD3 stimulated proliferation of liposome-transfected CD3+ T cells treated with 8-CPT-cAMP; format: cell-based, human; conditions: for Effect of peptide on cAMP dependent inhibition of T cell proliferation: increasing concentrations (25 to 100 μM), 8-CPT-cAMP 6.25 μM, FIG. 9
Protocol: FIG. 8. Reversal of cAMP-mediated inhibition of TUR/CD3 stimulated T cell proliferation by the use of ribozyme to the RIα subunit of protein kinase A type I. TCR/CD3 stimulated proliferation of peripheral blood CD3+ T cells from normal healthy blood donor following treatment with liposomes alone (mock) or with liposomes and RIα ribozyme (RIα rbz, 10 μM) in the absence (solid bars) and presence (open bars) of 8-CPT-cAMP (12,5 μM).
FIG. 9. Reversal of cAMP-mediated inhibition of TCR/CD3 stimulated T cell proliferation by the use of competitor peptide to compete the TCR/CD3 associated anchoring of RIα subunit of protein kinase A type I in T cells. TCR/CD3 stimulated proliferation of peripheral blood CD3+ T cells from normal healthy blood donor following treatment with liposomes alone (mock) or with increasing concentrations (25 to 100 μM) of a competitor peptide (Ht-31) that competes anchoring, to PKA type II or a control peptide (Ht31-P).
FIG. 10. TCR/CD3 stimulated proliferation of peripheral blood CD3+ T cells in the presence of increasing, concentrations of 8-CPT-cAMP. Normalized levels of proliferation of T cells mock transfected with liposomes only (solid circles, continuous line) or incubated with liposomes and Ht31 peptide (35 μM) to compete anchoring of protein kinase A type I (open circles, dotted line) was assessed as [^3H]-thymidine incorporation after 48 h during which [^3H]-thymidine was added for the last 18 h. Note: right shift of the IC50 (arrow) from 1,8 to 4,8 μM in the presence of […].
When transfected as synthetic RNA ribozyme or as a synthetic RNA ribozyme stabilized by incorporation of 2-deoxycytosine and 2-deoxy-uracil analogs into peripheral blood CD3+ T cells, the ribozyme reduced levels of RIα protein to approximately 20% of control levels by removing the RIα mRNA. By this strategy, the majority of protein kinase A type 1 was removed from the T cells. We then assessed the immune responsiveness of CD3+ T cells transfected with ribozyme compared to control (mock) transfected T cells measured as T cell proliferation after activation of T cells by stimulation of the T cell receptor/CD3 complex (TCR/CD3). In order to simulate a T cell dysfunction as that of HIV infection, with elevated levels of cAMP and increased activation of protein kinase A type 1, we treated normal T cells with low dose (12.5 around IC50) of the cAMP analog 8-(4-chlorophenyl)-thio-cAMPS (8-CPT-cAMP). […] For in vivo use pretreatment of ribozymes to allow cellular uptake or introduction into cells as minigenes will be necessary.
We incubated blood CD3+ T cells with increasing concentrations of Ht31 (SEQ. ID. NO 2) peptide. In order to facilitate uptake, cells were treated with liposomes in the presence or absence of-peptide. The optimal concentrations of DOTAP liposomes and anti-CD3 antibody were titrated carefully in order to maintain the membrane stability and normal TCR/CD3-dependent activation of the T cells. Cells were incubated for 20 hours with DOTAP/peptide and incubations continued in the absence (solid bars) or presence of 8-CPT-cAMP (6.25 μM, hatched bars) and activated to proliferation by stimulation of TCR/CD3 T cell immune responsiveness was assessed as [3H]thymidine incorporation.
Next, the effect of the competitor peptide (Ht-31, 35 μM) on T cell proliferation was examined in the presence of increasing concentrations of 8-CPT-cAMP and compared to mock transfected cells treated with the same concentrations of 8-CPT-cAMP (FIG. 10). As shown previously for normal peripheral blood T cells. […] Compared to the left-shifted curves observed with T cells from HIV-infected patients or patients with CIV due to elevated levels of endogenous cAMP activating PKA type 1, the right-shift observed here would be expected to normalize the situation in patients.

[2] = test system: PBMC; conditions: cited from earlier work
[3] = test system: PKAI isozymes; conditions: cited from earlier work
[4] = test system: PKAII isozymes; conditions: cited from earlier work
[5] = test system: peripheral blood CD3+ T cells; assay: TCR/CD3 (anti-CD3) stimulated T cell proliferation, [3H]-thymidine incorporation; format: cell-based, human; conditions: T cells from normal blood donors, FIG. 3A
Protocol: (§1) Human peripheral blood CD3+ T cells were purified by negative selection from 50 ml of heparin-treated blood from normal healthy donors (Ullevaal University Hospital Blood Center, Oslo. Norway) or patients. Briefly, peripheral blood mononuclear cells were isolated by density gradient (Lymphoprep, NycoMed, Oslo, Norway) centrifugation followed by negative selection using monodisperse magnetic beads directly coated with antibodies to CD14 and CD19 and rat anti-mouse IgG beads coated with antibodies to CD56 and a magnet. Magnetic beads were all from Dynal (Oslo, Norway, cat. no. 111.12, 111.04, and 110.11. respectively) whereas anti-CD56 antibody was from Pharmingen (San Diego, Calif., cat. no. 31660.d). All steps were performed at 4° C.
as §1, with “Peripheral blood” for “Human peripheral blood”, “Center, Oslo,” for “Center, Oslo.”, “selection using,” for “selection using”, “and 110.11,” for “and 110.11.”, “Calif., eat.” for “Calif., cat.”
Proliferation assays were performed by incubation of 0.75×10^6 CM+ T cells/ml in a 100 μl volume in that-bottom 96-well microtiter plates. Activation was achieved by subsequent addition of monodisperse magnetic beads coated with sheep anti-mouse IgG (Dynal. cat. no. 110.02) at a cell:bead ratio of 1:1 followed by addition of antiCD3 (clone SpvT3b) at a final dilution of 1:125,000 for the experiments shown. The optimal concentration of antibody was titrated carefully in the initial setup and parallel experiments at several different dilutions of antibody was always performed. Proliferation was analyzed by incubating, cells for 72 hours during which [^3H]thymidine was included for the last 16 hours. Cells were washed and harvested onto filters using a Scatron harvester (Suffolk, UK) and subsequently analyzed by β-scintillation counting. cAMP analogs, when used, were added 30 min prior to activation by addition of […] antibodies. 8-CPT-cAMP was from Sigorna (St. Louis, Mo.) and Sp- and Rp-8-Br-cAMPS were from BioLog Life Science Company (Bremen, Germany) and were all dissolved to concentrations of 4 to 10 mM in PBS and concentrations calculated using the extinction coefficients given by the manufacturer.

[6] = molecular target: RIα subunit of cAMP-dependent protein kinase A type I (human, UniProt P10644 1-381); assay: cell-based or functional assay
Sequence of RIα subunit of cAMP-dependent protein kinase A type I (P10644 whole entry): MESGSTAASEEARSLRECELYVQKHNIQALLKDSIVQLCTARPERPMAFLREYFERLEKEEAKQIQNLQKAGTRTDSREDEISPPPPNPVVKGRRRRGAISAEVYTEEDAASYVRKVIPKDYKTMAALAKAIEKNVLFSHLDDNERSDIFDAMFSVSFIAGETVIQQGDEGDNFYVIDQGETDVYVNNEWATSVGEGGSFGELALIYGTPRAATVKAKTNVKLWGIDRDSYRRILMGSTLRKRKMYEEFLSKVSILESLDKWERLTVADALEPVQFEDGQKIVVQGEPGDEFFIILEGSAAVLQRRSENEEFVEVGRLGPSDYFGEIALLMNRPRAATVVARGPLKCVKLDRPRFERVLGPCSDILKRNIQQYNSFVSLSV

H2N-Asp-Leu-Ile-Glu-Glu-Ala-Ala-Ser-Arg-Ile-Val-Asp-Ala-Val-Ile-Glu-Gln-Val-Lys-Ala-Ala-Gly-Ala-Tyr-COOH (H-DLIEEAASRIVDAVIEQVKAAGAY-OH) [Ht31]
Effect of peptide on 8-CPT-cAMP inhibition curve ([1]; 35 μM peptide, FIG. 10): right-shifted inhibition curve | Effect of peptide on cAMP dependent inhibition of T cell proliferation [1]: reduced sensitivity to cAMP | Effect of peptide on cAMP dependent inhibition of T cell proliferation ([1]; listed as Ht-31): reversed the cAMP dependent inhibition

C[C@H]1O[C@@H](n2cnc3c(N)ncnc32)C[C@@H]1O [ddAdo, 2′,5′ dideoxyadenosine]
Effect on cell proliferation ([2]; PBMC): increased the cell proliferation | Effect on cellular cAMP levels ([2]; PBMC): reduced cellular cAMP levels | Effective concentrations ([2]; higher concentrations suppressive or without further effect): ~6 ng/mL

Nc1ncnc2c1ncn2[C@@H]1O[C@@H]2CO[P@@](O)(=S)O[C@H]2[C@H]1O [Rp-cAMPS, Rp-cAMP-phosphorothioate]
Mode of action on PKAI isozymes [3]: full antagonist | Mode of action on PKAII isozymes [4]: partial agonist

Nc1ncnc2c1nc(Br)n2[C@@H]1O[C@@H]2COP(O)(=S)O[C@@H]2C1O (some centres unmarked) [Sp-8-Br-cAMPS, Sp-8-Bromo-cAMP-phosphorothioate, reference compound]
Effect of cAMP agonist on TCR/CD3-stimulated proliferation [5]: inhibited

B1: Ht31 competitor peptide (amino acids 493-515 of the A-kinase anchoring protein (AKAP) Ht31) (peptide)
peptide: H-DLIEEAASRIVDAVIEQVKAAGAY-OH
IC50 of 8-CPT-cAMP for inhibition of TCR/CD3 stimulated T cell proliferation with Ht-31 (35 µM); mock transfected cells had an IC50 around 1.8 µM [6]: 4.8 µM | TCR/CD3 stimulated proliferation of CD3+ T cells ([3H]thymidine incorporation) in the presence of 8-CPT-cAMP (6.25 µM), peptide delivered with DOTAP liposomes [6]: 3 fold
